Test results published in patent US8999071B2, “Surfactants derived from oligoglycerols” (Dow Global Technologies LLC, priority 2011, dated 2015).

Legend:
Assay type in all cases: physicochemical
[1] = Acidic stability: appearance and shake foam in 0.01 M HCl
Experimental: The acidic stability of compounds 1 and 2 are tested and compared with Triton™ CG-110 in 0.01 M HCl: solutions are prepared in 0.01 M HCl at 0.1 wt % surfactant concentration. Compound 1 solution is cloudy at this HCl concentration, indicating its cloud point is reduced by the presence of HCl.

[2] = Caustic stability: solubility in NaOH solution
Experimental: The caustic stability of compounds 1 and 2 is measured by their solubility in 10 wt % NaOH solution: stock solutions are prepared at 1 wt %. Into a sample vial, 1.0 gram of a stock solution is weighed and then 9.0 grams of 11.1 wt % NaOH solution is added to get a 0.1 wt % surfactant solution in 10% NaOH. Both solutions are clear at this condition. In contrast, Tomadol® 91-6 (C9-C11 alcohols ethoxylated to 6EO, cloud point=52° C.) solution (0.1 wt %) becomes cloudy at 5% NaOH content.

[3] = Dynamic surface tension, maximum bubble pressure method (Kruss BP-2)
Experimental: Dynamic surface tension is measured using a Kruss BP-2 Bubble Pressure Tensiometer. During the test, high purity nitrogen gas bubbles are produced in the surfactant solution at an exactly defined bubble generation rate. The gas bubbles enter the liquid through a glass capillary of known radius (0.223 mm). During this process the pressure passes through a maximum whose value is recorded by the instrument. Surface tension is then calculated from the maximum pressure during bubble formation, and reported as a function of bubble surface age, in ms, and bubble frequency. The measurements are made at ambient temperature.
Dynamic surface tension of surfactants at varying surface ages (presented as bubble frequency) are measure by bubble pressure method on Kruss BP2 tensiometer at 0.1 wt % concentration and 25° C.

[4] = Surface tension and critical micelle concentration, Kruss K100 tensiometer with Wilhelmy plate; details: 25° C., FIG. 1
Experimental: The surface tension and critical micelle concentration (cmc) of a surfactant solution is measured using Kruss K100 Surface Tensiometer fitted with a Wilhelmy platinum plate. A standard method is utilized. In this method, an increment of surfactant solution is added using a Dosimat™ dosimeter to the vessel initially containing deionized water, and then thoroughly stirred. The surface tension of the resulting solution is then measured. The process is repeated at each concentration data point. Two measurements are made for each system at ambient temperature.
Surface tension-Concentration data for the compound 3 at 25° C. are plotted in FIG. 1.

[5] = Dynamic surface tension, maximum bubble pressure method (Kruss BP-2); remark: listed apart in the source

SMILES: CCCCCCCCCOCC(O)COCC(O)CO (stereo not drawn) [Compound 1, 3-[3-(nonyloxy)-2-hydroxypropoxy]-1,2-propanediol]
- acidic stability compared with Triton CG-110 ([1]; 0.01 M HCl): improved stability
- Foam Volume, 20 h ([1]; 0.1 wt % in 0.01M HCl, 10 ml, shaken at high for 10 min., after 20 hours in air at room temperature): 17 mL
- Foam Volume, 0 h ([1]; 0.1 wt % in 0.01M HCl, 10 ml, shaken at high for 10 min., right after preparation): 17 mL
- foam persistence after shaking, 20 h ([1]; 0.1 wt % in 0.01M HCl, after 20 hours at room temperature): no change
- foam persistence after shaking, 0 h ([1]; 0.1 wt % in 0.01M HCl, right after preparation): no change
- appearance of solution in 0.01 M HCl ([1]; 0.1 wt % surfactant, 0.01 M HCl): cloudy
- appearance of 0.1 wt % surfactant solution in 10% NaOH [2]: clear
- surface tension over the whole tested range of ageing time compared to C12TG, C11DG and C10DG ([3]; 0.1 wt %, 25° C., FIG. 2): lower surface tension
- Surface Tension @ 6 bubbles/sec., 0.1 wt % ([3]; 25° C.): 35.6 dyne/cm

SMILES: CCCCCCCCCCOCC(O)COCC(O)COCC(O)CO (stereo not drawn) [Compound 2, 3-(3-(3-(decyloxy)-2-hydroxypropoxy)-2-hydroxypropoxy)propane-1,2-diol]
- acidic stability compared with Triton CG-110 ([1]; 0.01 M HCl): improved stability

SMILES: CCCCCC(CCC)COCC(O)COCC(O)CO (stereo not drawn) [Compound 3, 3-(2-hydroxy-3-((2-propylheptyl)oxy)propoxy)propane-1,2-diol]
- critical micelle concentration (cmc) [4]: about 700 ppm
- water surface tension after reaching critical micelle concentration [4]: 26-27 dynes/cm
- surface tension at bubble frequency larger than 10 bubbles/sec ([3]; 0.1 wt %, 25° C., >10 bubbles/sec, FIG. 2): around 37 dynes/cm
- surface tension in the whole range of surface ageing time compared to the Lutensol products ([3]; 0.1 wt %, 25° C., FIG. 2): lower surface tension
- surface tension over the whole tested range of ageing time compared to C12TG, C11DG and C10DG ([3]; 0.1 wt %, 25° C., FIG. 2): lower surface tension
- surface tension at lower bubble frequency compared to Surfynol 420 ([3]; 1-6 bubbles/sec., 0.1 wt %, FIG. 2): significantly lower surface tension
- Surface Tension @ 6 bubbles/sec., 0.1 wt % ([3]; 25° C.): 33.3 dyne/cm
- Surface Tension @ 6 bubbles/sec., 0.05 wt % [5]: 39.4 dyne/cm

SMILES: CCCCCCCCCCOCC(O)COCC(O)CO (stereo not drawn) [Compound 4, 3[3-(decyloxy)-2-hydroxypropoxy]-1,2-propanediol]
- Surface Tension @ 6 bubbles/sec., 0.1 wt % ([3]; 25° C.): 43.8 dyne/cm

SMILES: CCCCCCCCCCCOCC(O)COCC(O)CO (stereo not drawn) [Compound 6, 3-(2-hydroxy-3-(undecyloxy)propoxy)propane-1,2-diol]
- Surface Tension @ 6 bubbles/sec., 0.1 wt % ([3]; 25° C.): 61.4 dyne/cm

SMILES: CCCCCCCCCCCCOCC(O)COCC(O)COCC(O)CO (stereo not drawn) [Compound C12TG, 3-(3-(3-(dodecyloxy)-2-hydroxypropoxy)-2-hydroxypropoxy)propane-1,2-diol, reference compound]
- Surface Tension @ 6 bubbles/sec., 0.1 wt % ([3]; 25° C.): 56.9 dyne/cm
